Reference: the Kinase Knowledgebase extract (Sharma et al. 2016)

Assays:
MAPK14 (human) [1] = target: MAPK14 (human) (UniProt Q16539); assay: Inhibition of LPS Stimulated TNF Production by U937 Cells; conditions: for inhibition: concentration not given here
MAPK14 (human) [2] = target: MAPK14 (human) (UniProt Q16539); assay: Inhibition of MAPK14 Kinase Activity by PHAS-I Assay; conditions: for inhibition: concentration not given here

Chain of MAPK14 (human) (Q16539 whole entry, looked up): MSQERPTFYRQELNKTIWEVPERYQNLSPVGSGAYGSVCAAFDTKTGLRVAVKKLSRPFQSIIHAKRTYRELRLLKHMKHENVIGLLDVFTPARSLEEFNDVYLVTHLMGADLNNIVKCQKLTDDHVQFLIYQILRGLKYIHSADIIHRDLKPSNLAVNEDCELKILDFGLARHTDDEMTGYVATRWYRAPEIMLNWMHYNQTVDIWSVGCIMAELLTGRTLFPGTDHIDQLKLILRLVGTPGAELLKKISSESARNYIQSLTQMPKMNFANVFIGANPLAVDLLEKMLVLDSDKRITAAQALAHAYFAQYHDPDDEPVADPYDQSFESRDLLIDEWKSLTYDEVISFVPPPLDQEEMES

| Compound | inhibition (MAPK14 (human) [1]) [%] | inhibition (MAPK14 (human) [2]) [%] | IC50 (MAPK14 (human) [1]) [nM] | IC50 (MAPK14 (human) [2]) [nM] |
| --- | --- | --- | --- | --- |
| Cc1c(-c2ccncc2)c(-c2ccc(F)cc2)nn1CC(=O)N[C@@H](C)C1CCCCC1 | 38 | 64 |  |  |
| CCc1ccccc1NC(=O)NCCc1[nH]nc(-c2ccc(F)cc2)c1-c1ccncc1 | 22 | 79 |  |  |
| COc1ccc2[nH]c3c(c2c1)CCN(C(=O)Cn1nc(-c2ccc(F)cc2)c(-c2ccncc2)c1C)C3 | 10 | 39 |  |  |
| CCOC(=O)NCCc1[nH]nc(-c2ccc(F)cc2)c1-c1ccncc1 | 55 | 79 |  |  |
| N#Cc1ccc(C(=O)NCc2[nH]nc(-c3ccc(F)cc3)c2-c2ccncc2)cc1 | 40 | 53 |  |  |
| O=C(NCc1[nH]nc(-c2ccc(F)cc2)c1-c1ccncc1)Nc1ccccc1F |  | 23 | 2050 |  |
| CN(C)C(=O)NCc1[nH]nc(-c2ccc(F)cc2)c1-c1ccncc1 | 51 |  |  | 110 |
| NC(=O)NCCc1[nH]nc(-c2ccc(F)cc2)c1-c1ccncc1 | 60 | 76 |  |  |
| CC(=O)OCC(=O)NCCCc1[nH]nc(-c2ccc(F)cc2)c1-c1ccncc1 |  | 74 | 680 |  |
| CCOC(=O)C(CC(C)C)NC(=O)C(=O)NCCc1[nH]nc(-c2ccc(F)cc2)c1-c1ccncc1 (stereo unspecified) | 26 | 60 |  |  |
| O=S(=O)(NCCCc1[nH]nc(-c2ccc(F)cc2)c1-c1ccncc1)c1ccc(F)cc1F | 60 | 52 |  |  |
| Cc1c(-c2ccncc2)c(-c2ccc(F)cc2)nn1CC(=O)N(CC1CC1)C(C)Cc1ccc(Cl)cc1 (stereo unspecified) | 22 | 83 |  |  |
| CCC(=O)C(=O)CCCCCNC(=O)NCCc1[nH]nc(-c2ccc(F)cc2)c1-c1ccncc1 |  | 69 | > 1000 |  |
| C[C@H](NS(=O)(=O)[C@]12CC[C@@H](CC1=O)C2(C)C)c1[nH]nc(-c2ccc(F)cc2)c1-c1ccncc1 | 39 |  |  | 830 |
| Cc1c(-c2ccncc2)c(-c2ccc(F)cc2)nn1CC(=O)N1CCC[C@H]1CN1CCCC1 | 10 | 49 |  |  |
| Cc1cccc(S(=O)(=O)NCc2[nH]nc(-c3ccc(F)cc3)c2-c2ccncc2)c1 | 82 |  |  | 470 |
| N/C(=C(\N)S(=O)(=O)NCc1[nH]nc(-c2ccc(F)cc2)c1-c1ccncc1)c1ccccc1 |  | 89 | 2780 |  |
| CC(Oc1ccccc1)C(=O)NCCc1[nH]nc(-c2ccc(F)cc2)c1-c1ccncc1 (stereo unspecified) | 55 | 80 |  |  |
| Cc1ccc(S(=O)(=O)N[C@@H](Cc2ccccc2)C(=O)NCCc2[nH]nc(-c3ccc(F)cc3)c2-c2ccncc2)cc1 | 17 | 72 |  |  |
| COc1ccc(S(=O)(=O)NCCc2[nH]nc(-c3ccc(F)cc3)c2-c2ccncc2)cc1OC | 17 | 70 |  |  |
| O=C(NCc1[nH]nc(-c2ccc(F)cc2)c1-c1ccncc1)N1CCCC1 |  |  | > 1000 | 550 |
| CCOC(=O)C(CCSC)NC(=O)NCc1[nH]nc(-c2ccc(F)cc2)c1-c1ccncc1 (stereo unspecified) | 22 | 44 |  |  |
| CCOC(=O)c1ccc(NC(=O)NCCc2[nH]nc(-c3ccc(F)cc3)c2-c2ccncc2)cc1 | 17 | 90 |  |  |
| Cc1c(-c2ccncc2)c(-c2ccc(F)cc2)nn1CC(=O)Nc1ccc(CCC(=O)c2cccnc2)cc1 | 15 | 94 |  |  |
| Cc1c(-c2ccncc2)c(-c2ccc(F)cc2)nn1CC(=O)N(C)CCN1CCOCC1 | 28 | 32 |  |  |
| CC(Oc1ccccc1)C(=O)NCCCc1[nH]nc(-c2ccc(F)cc2)c1-c1ccncc1 (stereo unspecified) | 60 | 83 |  |  |
| CCS(=O)(=O)NCCc1[nH]nc(-c2ccc(F)cc2)c1-c1ccncc1 | 70 | 93 |  |  |
| O=C(NCCc1[nH]nc(-c2ccc(F)cc2)c1-c1ccncc1)Nc1ccc(-c2ccccc2)cc1 | 26 | 35 |  |  |
| O=C(NCCc1[nH]nc(-c2ccc(F)cc2)c1-c1ccncc1)[C@@H]1CCCN1 |  | 89 | 760 |  |
| CCOC(=O)CCOC(=O)NCc1[nH]nc(-c2ccc(F)cc2)c1-c1ccncc1 | 5 | 54 |  |  |

The next lines start with the values.

| inhibition (MAPK14 (human) [1]) [%] | inhibition (MAPK14 (human) [2]) [%] | IC50 (MAPK14 (human) [1]) [nM] | IC50 (MAPK14 (human) [2]) [nM] | Compound |
| --- | --- | --- | --- | --- |
|  |  | > 1000 | 560 | O=C(NCc1[nH]nc(-c2ccc(F)cc2)c1-c1ccncc1)N1CCOCC1 |
| 25 | 65 |  |  | CCCCCc1cccc(C(C)NC(=O)Cn2nc(-c3ccc(F)cc3)c(-c3ccncc3)c2C)c1 (stereo unspecified) |
| 28 | 65 |  |  | Cc1c(-c2ccncc2)c(-c2ccc(F)cc2)nn1CC(=O)NC(C)Cc1c[nH]c2ccccc12 (stereo unspecified) |
| 86 |  |  | 24 | COc1ccc(Br)cc1S(=O)(=O)N[C@H](C)c1[nH]nc(-c2ccc(F)cc2)c1-c1ccncc1 |
| 23 | 65 |  |  | O=C(NCCc1[nH]nc(-c2ccc(F)cc2)c1-c1ccncc1)c1ccccc1I |
| 68 | 68 |  |  | CNC(=O)NCCc1[nH]nc(-c2ccc(F)cc2)c1-c1ccncc1 |
| 40 |  |  | 130 | CCN(CC)C(=O)NCc1[nH]nc(-c2ccc(F)cc2)c1-c1ccncc1 |
| 26 |  |  | < 100 | CC1(C)[C@H]2CC[C@@]1(CS(=O)(=O)NCCc1[nH]nc(-c3ccc(F)cc3)c1-c1ccncc1)C(=O)C2 |
| 24 | 51 |  |  | Cc1c(-c2ccncc2)c(-c2ccc(F)cc2)nn1CC(=O)N1CCCN(C)CC1 |
| 20 | 88 |  |  | O=S(=O)(NCCc1[nH]nc(-c2ccc(F)cc2)c1-c1ccncc1)c1ccccc1 |
| 39 | 83 |  |  | O=C(NCCc1[nH]nc(-c2ccc(F)cc2)c1-c1ccncc1)Nc1cccc2ccccc12 |
| 45 | 69 |  |  | O=C(NCc1[nH]nc(-c2ccc(F)cc2)c1-c1ccncc1)c1ccc(OC(F)(F)F)cc1 |
| 65 | 72 |  |  | O=C(NCCc1[nH]nc(-c2ccc(F)cc2)c1-c1ccncc1)C1CCC1 |
| 79 | 78 |  |  | CC(=O)NCCc1[nH]nc(-c2ccc(F)cc2)c1-c1ccncc1 |
| 66 | 72 |  |  | O=C(NCCc1[nH]nc(-c2ccc(F)cc2)c1-c1ccncc1)Nc1cccc(F)c1 |
|  |  | > 1000 | 2400 | O=S(=O)(NCc1[nH]nc(-c2ccc(F)cc2)c1-c1ccncc1)C(F)(F)F |
| 66 | 79 |  |  | O=C(NCCCc1[nH]nc(-c2ccc(F)cc2)c1-c1ccncc1)C1CCCC1 |
| 23 | 56 |  |  | COc1cc(NC(=O)NCCc2[nH]nc(-c3ccc(F)cc3)c2-c2ccncc2)cc(OC)c1OC |
| 21 | 44 |  |  | O=C(NCCc1[nH]nc(-c2ccc(F)cc2)c1-c1ccncc1)Nc1cc(Cl)cc(Cl)c1 |
| 62 | 78 |  |  | O=S(=O)(NCCCc1[nH]nc(-c2ccc(F)cc2)c1-c1ccncc1)c1ccc(F)cc1 |
| 32 | 82 |  |  | COc1cc(OC)c(NC(=O)NCCc2[nH]nc(-c3ccc(F)cc3)c2-c2ccncc2)cc1Cl |
| 20 | 82 |  |  | O=C(NCCc1[nH]nc(-c2ccc(F)cc2)c1-c1ccncc1)Nc1ccc(C(F)(F)F)cc1 |
| 67 | 67 |  |  | COc1ccc(CC(=O)NCCCc2[nH]nc(-c3ccc(F)cc3)c2-c2ccncc2)cc1OC |
